These are literature values, as cited in patent US20170340738A1, “STABLE ACIDIC INSULIN FORMULATIONS” (MERCK SHARP & DOHME CORP., priority 2012, published 2017).

For the data set the following is noted: administered once daily subcutaneously.

With “Gly(A21), Arg(B31), Arg(B32)-human insulin [insulin glargine]”, the Basal coverage is 24 h.
